Experimental data reported in PubChem BioAssay AID1963972 (Molecular Pharmacology Branch, DTP, NCI, 2024).

System: 945468-187-T-J2-PDC spheroids viability
Experiment: Anticancer human tumor 945468-187-T-J2-PDC patient-derived rectal carcinoma cell line growth inhibition [PI3K]
Conditions: spheroids with HUVEC and MSC; for IC50: curve of first compound; for viability, T/C: stronger effect = lower value; active means viability on the fitted dose curve at most 10% of control; inactive means the rest
Summary of the method: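 Complex 3D spheroids (cancer cells + endothelial HUVEC + mesenchymal stem cells); drug pairs of targeted agent x inavolisib/alpelisib/duvelisib/copanlisib; half-log series from ~Cmax, max 10 microM if Cmax unknown; endpoint viability.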

[1] = second compound 0.0316 µM, first compound 0.0316 µM
[2] = second compound 0.0316 µM, first compound 0.1 µM
[3] = second compound 0.0316 µM, first compound 0.316 µM
[4] = second compound 0.0316 µM, first compound 1 µM
[5] = second compound 0.0316 µM, first compound 3.16 µM
[6] = second compound 0.0316 µM, first compound 10 µM
[7] = second compound 0.1 µM, first compound 0.0316 µM
[8] = second compound 0.1 µM, first compound 0.1 µM
[9] = second compound 0.1 µM, first compound 0.316 µM
[10] = second compound 0.1 µM, first compound 1 µM
[11] = second compound 0.1 µM, first compound 3.16 µM
[12] = second compound 0.1 µM, first compound 10 µM
[13] = second compound 0.316 µM, first compound 0.0316 µM
[14] = second compound 0.316 µM, first compound 0.1 µM
[15] = second compound 0.316 µM, first compound 0.316 µM
[16] = second compound 0.316 µM, first compound 1 µM
[17] = second compound 0.316 µM, first compound 3.16 µM
[18] = second compound 0.316 µM, first compound 10 µM
[19] = second compound 1 µM, first compound 0.0316 µM
[20] = second compound 1 µM, first compound 0.1 µM
[21] = second compound 1 µM, first compound 0.316 µM
[22] = second compound 1 µM, first compound 1 µM
[23] = second compound 1 µM, first compound 3.16 µM
[24] = second compound 1 µM, first compound 10 µM
[25] = second compound 3.16 µM, first compound 0.0316 µM
[26] = second compound 3.16 µM, first compound 0.1 µM
[27] = second compound 3.16 µM, first compound 0.316 µM
[28] = second compound 3.16 µM, first compound 1 µM
[29] = second compound 10 µM, first compound 0.0316 µM
[30] = second compound 10 µM, first compound 0.1 µM
[31] = second compound 10 µM, first compound 0.316 µM
[32] = second compound 10 µM, first compound 1 µM
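Further: spheroids exposed to compounds for seven days before reading.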

CC1(C)CCC(Nc2ncc(C(F)(F)F)c(-c3c[nH]c4c(P(C)(C)=O)c(C#N)ccc34)n2)CN1 (stereo unspecified) + COc1c(OCCCN2CCOCC2)ccc2c3n(c(=NC(=O)c4cnc(N)nc4)nc12)CCN3
871 nM: IC50 (second compound 0.01 µM)
inactive: viability, T/C (second compound 0.00316 µM, first compound 0.0316 µM) 91% | viability, T/C (second compound 0.00316 µM, first compound 0.1 µM) 86.8% | viability, T/C (second compound 0.00316 µM, first compound 0.316 µM) 66.3% | viability, T/C (second compound 0.00316 µM, first compound 1 µM) 40.5% | viability, T/C (second compound 0.00316 µM, first compound 3.16 µM) 32.6% | viability, T/C (second compound 0.00316 µM, first compound 10 µM) 27.6% | viability, T/C (second compound 0.01 µM, first compound 0.0316 µM) 92.9% | viability, T/C (second compound 0.01 µM, first compound 0.1 µM) 89.8% | viability, T/C (second compound 0.01 µM, first compound 0.316 µM) 76% | viability, T/C (second compound 0.01 µM, first compound 1 µM) 46.8% | viability, T/C (second compound 0.01 µM, first compound 3.16 µM) 30.2% | viability, T/C (second compound 0.01 µM, first compound 10 µM) 28.7% | viability, T/C [1] 110% | viability, T/C [2] 85% | viability, T/C [3] 69.2% | viability, T/C [4] 38.9% | viability, T/C [5] 37.7% | viability, T/C [6] 25.9% | viability, T/C [7] 86.5% | viability, T/C [8] 88.4% | viability, T/C [9] 62.8% | viability, T/C [10] 43.5% | viability, T/C [11] 37.3% | viability, T/C [12] 31.8% | viability, T/C [13] 42% | viability, T/C [14] 44.3% | viability, T/C [15] 40.2% | viability, T/C [16] 33.8% | viability, T/C [17] 31.2% | viability, T/C [18] 17.2% | viability, T/C [19] 21.3% | viability, T/C [20] 19.5% | viability, T/C [21] 22.8% | viability, T/C [22] 19% | viability, T/C [23] 17.7% | viability, T/C [24] 10.2%
663 nM: IC50 (second compound 0.00316 µM) | IC50 (second compound 0.1 µM)
< 31.6 nM: IC50 (second compound 0.316 µM) | IC50 (second compound 1 µM)
745 nM: IC50 (second compound 0.0316 µM)

CNC(=O)c1ccc(N2C(=S)N(c3ccc(C#N)c(C(F)(F)F)c3)C(=O)C2(C)C)cc1F + Cc1nc(NC(=O)N2CCCC2C(N)=O)sc1-c1ccnc(C(C)(C)C(F)(F)F)c1
inactive: viability, T/C [1] 116% | viability, T/C [2] 103% | viability, T/C [3] 88.8% | viability, T/C [4] 106% | viability, T/C [5] 108% | viability, T/C [6] 102% | viability, T/C [7] 95.4% | viability, T/C [8] 82% | viability, T/C [9] 91.3% | viability, T/C [10] 95.5% | viability, T/C [11] 102% | viability, T/C [12] 85.7% | viability, T/C [13] 108% | viability, T/C [14] 105% | viability, T/C [15] 91.5% | viability, T/C [16] 118% | viability, T/C [17] 85.5% | viability, T/C [18] 92.6% | viability, T/C [19] 93.3% | viability, T/C [20] 86.2% | viability, T/C [21] 110% | viability, T/C [22] 79.8% | viability, T/C [23] 78.4% | viability, T/C [24] 92.9% | viability, T/C [25] 81.1% | viability, T/C [26] 85.8% | viability, T/C [27] 84.7% | viability, T/C [28] 83% | viability, T/C (second compound 3.16 µM, first compound 3.16 µM) 89% | viability, T/C (second compound 3.16 µM, first compound 10 µM) 83.6% | viability, T/C [29] 83.1% | viability, T/C [30] 68.5% | viability, T/C [31] 74.1% | viability, T/C [32] 73.5% | viability, T/C (second compound 10 µM, first compound 3.16 µM) 72.6% | viability, T/C (second compound 10 µM, first compound 10 µM) 63.5%
> 10000 nM: IC50 (second compound 0.0316 µM) | IC50 (second compound 0.1 µM) | IC50 (second compound 0.316 µM) | IC50 (second compound 1 µM) | IC50 (second compound 3.16 µM) | IC50 (second compound 10 µM)

CCN1CCN(Cc2ccc(Nc3ncc(F)c(-c4cc(F)c5nc(C)n(C(C)C)c5c4)n3)nc2)CC1 + Cc1nc(NC(=O)N2CCCC2C(N)=O)sc1-c1ccnc(C(C)(C)C(F)(F)F)c1
753 nM: IC50 (second compound 3.16 µM)
inactive: viability, T/C (second compound 0.0316 µM, first compound 0.00316 µM) 84.8% | viability, T/C (second compound 0.0316 µM, first compound 0.01 µM) 103% | viability, T/C [1] 123% | viability, T/C [2] 91.5% | viability, T/C [3] 107% | viability, T/C [4] 105% | viability, T/C (second compound 0.1 µM, first compound 0.00316 µM) 124% | viability, T/C (second compound 0.1 µM, first compound 0.01 µM) 104% | viability, T/C [7] 131% | viability, T/C [8] 88.9% | viability, T/C [9] 103% | viability, T/C [10] 76.2% | viability, T/C (second compound 0.316 µM, first compound 0.00316 µM) 103% | viability, T/C (second compound 0.316 µM, first compound 0.01 µM) 91.8% | viability, T/C [13] 123% | viability, T/C [14] 104% | viability, T/C [15] 118% | viability, T/C [16] 73.6% | viability, T/C (second compound 1 µM, first compound 0.00316 µM) 118% | viability, T/C (second compound 1 µM, first compound 0.01 µM) 108% | viability, T/C [19] 115% | viability, T/C [20] 108% | viability, T/C [21] 96.8% | viability, T/C [22] 58.9% | viability, T/C (second compound 3.16 µM, first compound 0.00316 µM) 119% | viability, T/C (second compound 3.16 µM, first compound 0.01 µM) 92.9% | viability, T/C [25] 111% | viability, T/C [26] 93.5% | viability, T/C [27] 84.2% | viability, T/C [28] 38.7% | viability, T/C (second compound 10 µM, first compound 0.00316 µM) 81.5% | viability, T/C (second compound 10 µM, first compound 0.01 µM) 84.4% | viability, T/C [29] 94% | viability, T/C [30] 66.7% | viability, T/C [31] 52.8% | viability, T/C [32] 28.1%
> 1000 nM: IC50 (second compound 0.0316 µM) | IC50 (second compound 0.1 µM) | IC50 (second compound 0.316 µM) | IC50 (second compound 1 µM)
322 nM: IC50 (second compound 10 µM)
